Measurements from US20220324835A1 (Nurix Therapeutics, Inc., priority 2018, published 2022).

How the values were obtained:
Cbl-b = Cbl-b (Homo sapiens, UniProt Q13191); assay: Cbl-b inhibition assay (Cbl-b activity assay, FRET, Biological Example 1; 100 mM NaCl, 60 nM Src kinase); assay type: biochemical; conditions: upper bound stated in text lists; read-out: IC50 values in the Cbl-b inhibition assay of Biological Example 1
Summary of the method: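 FRET read-out: loss of signal marks inhibition. Mix = biotin-Avi-Cbl-b (N-term), Src kinase, UbcH5B-Ub(Bodipy-FL, irreversible conjugate), streptavidin-Tb, assay buffer.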

T-cell = assay: IL-2 secretion from T-cells co-stimulated with anti-CD3 and anti-CD28 antibody (Biological Example 2); assay type: cell-based, human; conditions: Homo sapiens, T-cell, primary human total T-cells, baseline = anti-CD3/anti-CD28 stimulated cells without inhibitor, read-out: IL-2 secretion, Anti-CD3/Anti-CD28 stimulation, fold change over baseline; for fold induction at 0.3 µM: 0.3 μM compound; for fold induction at 1 µM: 1 μM compound; for fold induction at 4 µM: 4 μM compound
Summary of the method: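 Values are fold-change over baseline: readings (IL-2 release, CD25 staining) from inhibitor-treated T-cells divided against untreated cells […]. No detailed procedure stated.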

Chain of Cbl-b (Q13191 36-427): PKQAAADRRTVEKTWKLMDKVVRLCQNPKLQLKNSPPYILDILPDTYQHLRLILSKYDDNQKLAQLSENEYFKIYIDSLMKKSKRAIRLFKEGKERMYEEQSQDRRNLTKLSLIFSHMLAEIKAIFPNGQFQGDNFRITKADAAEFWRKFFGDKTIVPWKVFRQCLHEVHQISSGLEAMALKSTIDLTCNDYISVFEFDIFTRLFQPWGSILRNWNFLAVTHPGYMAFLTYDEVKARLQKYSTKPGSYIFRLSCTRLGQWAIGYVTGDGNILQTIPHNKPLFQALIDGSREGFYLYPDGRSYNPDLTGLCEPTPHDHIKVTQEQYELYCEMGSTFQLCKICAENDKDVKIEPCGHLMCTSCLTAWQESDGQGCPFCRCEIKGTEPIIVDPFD

Compound	IC50 (Cbl-b)	fold induction at 0.3 µM (T-cell)	fold induction at 1 µM (T-cell)	fold induction at 4 µM (T-cell)
Cc1n[nH]c(C)c1-c1cc2c(c(C(F)(F)F)c1)CN(c1cccc(C3(Cc4nncn4C)COC3)c1)C2=O [Compound 385, 6-(3,5-dimethyl-1H-pyrazol-4-yl)-2-(3-{3-[(4-methyl-4H-1,2,4-triazol-3-yl)methyl]oxetan-3-yl}phenyl)-4-(trifluoromethyl)-2,3-dihydro-1H-isoindol-1-one]	≤ 100 nM	1.01 to 2.5	2.51 to 5	> 7.5
C[C@H](Cc1nncn1C)c1cccc(N2Cc3c(cc(CN4CC(O)C4)cc3C(F)(F)F)C2=O)c1 [Compound 393, (R)-6-((3-hydroxyazetidin-1-yl)methyl)-2-(3-(1-(4-methyl-4H-1,2,4-triazol-3-yl)propan-2-yl)phenyl)-4-(trifluoromethyl)isoindolin-1-one]	≤ 100 nM	2.51 to 5	> 7.5	> 7.5
C[C@H](Cc1nncn1C)c1cccc(N2Cc3c(cc(CN4CC(C)(O)C4)cc3C(F)(F)F)C2=O)c1 [Compound 397]	≤ 100 nM	2.51 to 5	> 7.5	> 7.5
C[C@H](Cc1nncn1C)c1cccc(N2Cc3c(cc(CN4CC[C@](C)(O)C4)cc3C(F)(F)F)C2=O)c1 [Compound 398, 6-(((S)-3-hydroxy-3-methylpyrrolidin-1-yl)methyl)-2-(3-((R)-1-(4-methyl-4H-1,2,4-triazol-3-yl)propan-2-yl)phenyl)-4-(trifluoromethyl)isoindolin-1-one]	≤ 100 nM	2.51 to 5	5 to 7.5	> 7.5
C[C@H](Cc1nncn1C)c1cccc(N2Cc3c(cc(CN4CC[C@H](F)C4)cc3C(F)(F)F)C2=O)c1 [Compound 399, 6-(((S)-3-fluoropyrrolidin-1-yl)methyl)-2-(3-((R)-1-(4-methyl-4H-1,2,4-triazol-3-yl)propan-2-yl)phenyl)-4-(trifluoromethyl)isoindolin-1-one]	≤ 100 nM	5 to 7.5	> 7.5	> 7.5
Cn1cnnc1CC1(c2cccc(N3Cc4c(cc(CN5CC[C@H](F)C5)cc4C(F)(F)F)C3=O)c2)COC1 [Compound 410, 6-{[(3S)-3-fluoropyrrolidin-1-yl]methyl}-2-(3-{3-[(4-methyl-4H-1,2,4-triazol-3-yl)methyl]oxetan-3-yl}phenyl)-4-(trifluoromethyl)-2,3-dihydro-1H-isoindol-1-one]	≤ 100 nM	5 to 7.5	> 7.5	> 7.5
C[C@@H](c1cc2c(c(C(F)(F)F)c1)CN(c1cccc(C3(Cc4nncn4C)COC3)c1)C2=O)N1CC[C@H](F)C1 [Compound 412, 6-((S)-1-((S)-3-fluoropyrrolidin-1-yl)ethyl)-2-(3-(3-((4-methyl-4H-1,2,4-triazol-3-yl)methyl)oxetan-3-yl)phenyl)-4-(trifluoromethyl)isoindolin-1-one]	≤ 100 nM	> 7.5	> 7.5	> 7.5
C[C@H](c1cc2c(c(C(F)(F)F)c1)CN(c1cccc(C3(Cc4nncn4C)COC3)c1)C2=O)N1CC[C@H](F)C1 [Compound 413, 6-((R)-1-((S)-3-fluoropyrrolidin-1-yl)ethyl)-2-(3-(3-((4-methyl-4H-1,2,4-triazol-3-yl)methyl)oxetan-3-yl)phenyl)-4-(trifluoromethyl)isoindolin-1-one]	≤ 100 nM	5 to 7.5	> 7.5	> 7.5
Cn1cnnc1CC1(c2cccc(N3Cc4c(cc(CN5CC(F)C5)cc4C(F)(F)F)C3=O)c2)COC1 [Compound 415, 6-((3-fluoroazetidin-1-yl)methyl)-2-(3-(3-((4-methyl-4H-1,2,4-triazol-3-yl)methyl)oxetan-3-yl)phenyl)-4-(trifluoromethyl)isoindolin-1-one]	≤ 100 nM	5 to 7.5	> 7.5	> 7.5
Cn1cnnc1CC1(c2cccc(N3Cc4c(cc(CN5CC[C@@H](C#N)C5)cc4C(F)(F)F)C3=O)c2)COC1 [Compound 421, (R)-1-((2-(3-(3-((4-methyl-4H-1,2,4-triazol-3-yl)methyl)oxetan-3-yl)phenyl)-3-oxo-7-(trifluoromethyl)isoindolin-5-yl)methyl)pyrrolidine-3-carbonitrile]	≤ 100 nM	5 to 7.5	> 7.5	> 7.5
Cn1cnnc1CC1(c2cccc(N3Cc4c(cc(CN5CC[C@H](C#N)C5)cc4C(F)(F)F)C3=O)c2)COC1 [Compound 422, (S)-1-((2-(3-(3-((4-methyl-4H-1,2,4-triazol-3-yl)methyl)oxetan-3-yl)phenyl)-3-oxo-7-(trifluoromethyl)isoindolin-5-yl)methyl)pyrrolidine-3-carbonitrile]	≤ 100 nM	5 to 7.5	> 7.5	> 7.5
Cn1cnnc1CC1(c2cccc(N3Cc4c(cc(CN5C[C@H]6C[C@H]6C5)cc4C(F)(F)F)C3=O)c2)COC1 [Compound 429, 6-(((1R,5S)-3-azabicyclo[3.1.0]hexan-3-yl)methyl)-2-(3-(3-((4-methyl-4H-1,2,4-triazol-3-yl)methyl)oxetan-3-yl)phenyl)-4-(trifluoromethyl)isoindolin-1-one]	≤ 100 nM	> 7.5	> 7.5	> 7.5
Cn1cnnc1CC1(c2cccc(N3Cc4c(cc(CN5CCC[C@H](F)C5)cc4C(F)(F)F)C3=O)c2)COC1 [Compound 432, 6-{[(3S)-3-fluoropiperidin-1-yl]methyl}-2-(3-{3-[(4-methyl-4H-1,2,4-triazol-3-yl)methyl]oxetan-3-yl}phenyl)-4-(trifluoromethyl)-2,3-dihydro-1H-isoindol-1-one]	≤ 100 nM	> 7.5	> 7.5	–
Cn1cnnc1C(F)(F)[C@](C)(F)c1cccc(N2Cc3c(cc(C(=O)N4CC[C@H](O)C4)cc3C(F)(F)F)C2=O)c1 [Compound 438, 6-((S)-3-hydroxypyrrolidine-1-carbonyl)-2-(3-((R)-1,1,2-trifluoro-1-(4-methyl-4H-1,2,4-triazol-3-yl)propan-2-yl)phenyl)-4-(trifluoromethyl)isoindolin-1-one]	≤ 100 nM	1.01 to 2.5	2.51 to 5	> 7.5
Cn1cnnc1C(F)(F)[C@](C)(F)c1cccc(N2Cc3c(cc(N4CCNCC4)cc3C(F)(F)F)C2=O)c1 [Compound 442, (R)-6-(Piperazin-1-yl)-2-(3-(1,1,2-trifluoro-1-(4-methyl-4H-1,2,4-triazol-3-yl)propan-2-yl)phenyl)-4-(trifluoromethyl)isoindolin-1-one]	≤ 100 nM	2.51 to 5	> 7.5	> 7.5
Cn1cnnc1C(F)(F)[C@](C)(F)c1cccc(N2Cc3c(cc(CN4CC[C@H](F)C4)cc3C(F)(F)F)C2=O)c1 [Compound 447, 6-(((S)-3-fluoropyrrolidin-1-yl)methyl)-2-(3-((R)-1,1,2-trifluoro-1-(4-methyl-4H-1,2,4-triazol-3-yl)propan-2-yl)phenyl)-4-(trifluoromethyl)isoindolin-1-one]	≤ 100 nM	2.51 to 5	> 7.5	> 7.5
Cn1cnnc1C(F)(F)[C@](C)(F)c1cccc(N2Cc3c(cc(CN4CCC(F)(F)C4)cc3C(F)(F)F)C2=O)c1 [Compound 448, (R)-6-((3,3-difluoropyrrolidin-1-yl)methyl)-2-(3-(1,1,2-trifluoro-1-(4-methyl-4H-1,2,4-triazol-3-yl)propan-2-yl)phenyl)-4-(trifluoromethyl)isoindolin-1-one]	≤ 100 nM	1.01 to 2.5	2.51 to 5	> 7.5
Cn1cnnc1C(F)(F)[C@](C)(F)c1cccc(N2Cc3c(cc(CN4CC[C@@H](F)C4)cc3C(F)(F)F)C2=O)c1 [Compound 450]	≤ 100 nM	2.51 to 5	> 7.5	> 7.5
COC1CN(Cc2cc3c(c(C(F)(F)F)c2)CN(c2cccc([C@@](C)(F)C(F)(F)c4nncn4C)c2)C3=O)C1 [Compound 452, (R)-6-((3-methoxyazetidin-1-yl)methyl)-2-(3-(1,1,2-trifluoro-1-(4-methyl-4H-1,2,4-triazol-3-yl)propan-2-yl)phenyl)-4-(trifluoromethyl)isoindolin-1-one]	≤ 100 nM	2.51 to 5	5 to 7.5	> 7.5
Cn1cnnc1C(F)(F)[C@](C)(F)c1cccc(N2Cc3c(cc(CN4CC[C@@H](C#N)C4)cc3C(F)(F)F)C2=O)c1 [Compound 455, (R)-1-((3-oxo-2-(3-((R)-1,1,2-trifluoro-1-(4-methyl-4H-1,2,4-triazol-3-yl)propan-2-yl)phenyl)-7-(trifluoromethyl)isoindolin-5-yl)methyl)pyrrolidine-3-carbonitrile]	≤ 100 nM	5 to 7.5	> 7.5	> 7.5
